Values quoted from earlier work in USRE46284E1, “Method of administrating an anticancer drug containing α, α, α-trifluorothymidine and thymidine phosphorylase inhibitor” (TAIHO PHARMACEUTICAL CO., LTD., priority 2005, dated 2017).

Conditions: human, intravenous administration

half-life in the blood: approximately 12 minutes
SMILES: O=c1[nH]c(=O)n([C@H]2C[C@H](O)[C@@H](CO)O2)cc1C(F)(F)F [FTD, α,α,α-trifluorothymidine]
